{"source": "patent US7968128B2", "about": "“Plant extract compositions for affecting sleep” (VIVA Pharmaceutical Inc., priority 2008, dated 2011)", "format_in_all_cases": "in vivo, Swiss mice", "key": {"[1]": {"tested_on": "mice", "test": "Sodium barbital induced sleep time measurement", "procedure": "(§1) Male and female Swiss mice having weights between about 18 to 22 g were used in the Examples provided below. Mice were housed in groups of 10 mice in a breeding room having a controlled temperature of about 22±2° C. Each group had free access to standard diet pellets and tap water.\n(§2) Each of the extract combinations “BS” and “BY” produced in Example 1, was prepared for oral administration (PO) by ultrasonically dispersing each extract in distilled water containing about 0.5% Tween-80. Diazepam was also prepared for administration by ultrasonically dispersing the Diazepam in distilled water containing about 0.5% Tween-80.\n(§3) Each of the BY, BS, and Diazepam compositions was administered orally to separate groups of mice at a dosage of 10 mL/kg body weight.\n(§4) Dosages of the BS, BY, Diazepam compositions, and the sterile distilled water were administered orally to groups of mice, wherein each group comprised at least 10 mice.\nMice were administered 90 mg/kg sodium barbital via intraperitoneal injection (ip). Mice were then positioned on their back. The time that elapsed between administration of the sodium barbital and when each animal lost their righting reflex represented the time period between latency to the onset of sleep. The BS, BY, Diazepam, and the control treatments were administered to separate groups of mice. Each group of mice received their treatment about 7 days prior to the administration of the sodium barbital. The duration of sleeping time was calculated as the time interval between the loss of righting reflex to the time of recovery of this reflex. In studying the effects of the BS and BY extracts, the comparison of the durations of sleeping time between mice receiving the BS, BY, Diazepam treatments and the control treatments, was used as the main criterion of measurement."}, "[2]": {"tested_on": "mice", "test": "Locomotor activity measurements (square arena)", "settings": "for Locomotor activity count: dose 1 mg/kg oral, mean ± SE, n = 10", "procedure": "as §1, §2, §3, §4\nThe effects of the BS treatments and the BY treatments on inhibition of central nervous system were evaluated by measurements of the locomotor activities of mice.\nEach mouse was placed in the center of a square arena having dimensions of approximately 60 cm×60 cm×35 cm. […] The arena was illuminated using red 25 W bulbs on the ceiling. The total number of squares each mouse entered in a 5 minute period was recorded by an overhead video camera. The camera was linked to a monitor and video recorder in an adjacent laboratory.\nThe locomotor activity of the mice were recorded both before and 30-minutes, 60-minutes, 120-minutes, and 180-minutes after administration of one of BS, BY, Diazepam, and the control.\nAll locomotor activity recordings were carried out with the observer unaware of the treatment that was administered to each of the mice."}, "[3]": {"tested_on": "mice", "test": "Traction test", "procedure": "as §1\nEach of the extract combinations “BS” and “BY” produced in Example 1, was prepared for oral administration (PO) by ultrasonically dispersing each extract in distilled water containing about 0.5% Tween-80. Diazepam was also prepared for administration by ultrasonically dispersing the Diazepam in distilled water containing about 0.5% Tween-80. […]\nThe effects of the BS and BY compositions on inhibition of muscle coordination systems were evaluated using a traction test.\nA wire having a diameter of about 1.6 mm and length of about 30 cm was stretched and secured horizontally at a height of about 30 cm above a surface. […] The duration of time each mouse clung to the wire was recorded up to a maximum of 60 seconds.\nThe test was performed about 60 minutes after the administration of one of the BS, BY, Diazepam, and the control compositions. […] The durations of clinging time measured for each group of mice were calculated using the mean value of triplicates for each mouse. If the duration of clinging time was greater than 60 seconds, the mouse was released from the wire, and the clinging time was recorded 60 seconds."}, "[4]": {"tested_on": "mice", "test": "Inclined plane test", "procedure": "as §1, §2\nEach of the BY, BS, and Diazepam compositions was administered orally to separate groups of mice at a dosage of 10 mL/kg body weight. […]\nEffects of the BS and BY compositions on the motor functions of mice were evaluated using an inclined plane test.\nThe inclined plane consisted of two rectangular steel boards connected at one end by a hinge. […] The maximum inclination of the plane at which a mouse could maintain itself in position for at least 5 seconds was recorded, and interpreted to represent the mouse's functional ability. The test was performed in triplicate for each mouse and the mean value was recorded as the maximum inclination."}, "[5]": {"settings": "dose 1.0 mg/kg oral, sodium barbital 90 mg/kg ip, mean ± SE, n = 10"}}, "data": [{"smiles": "CN1C(=O)CN=C(c2ccccc2)c2cc(Cl)ccc21", "note": "[Diazepam]", "values": [{"measurement": "sodium barbital-induced sleeping time compared to the controls (in words)", "setting": "[1]; dosage 1.0 mg/kg", "result": "significantly prolonged"}, {"measurement": "Duration of Sleep", "setting": "[1]; [5]", "result": "72.8 ± 7.5", "unit": "min"}, {"measurement": "Sleep latency", "setting": "[1]; [5]", "result": "169.1 ± 12.4", "unit": "s"}, {"measurement": "effects on the locomotor activity of the mice (in words)", "setting": "[2]; all doses and times of Table 2", "result": "None of the BS, BY and Diazepam compositions had any significant effects"}, {"measurement": "Locomotor activity count", "setting": "[2]; 0 minutes (before administration), squares entered in 5 min", "result": "80.4 ± 6.7"}, {"measurement": "Locomotor activity count", "setting": "[2]; 30 minutes after administration", "result": "68.9 ± 4.9"}, {"measurement": "Locomotor activity count", "setting": "[2]; 60 minutes after administration", "result": "56.7 ± 3.8"}, {"measurement": "Locomotor activity count", "setting": "[2]; 120 minutes after administration", "result": "52.6 ± 3.6"}, {"measurement": "Locomotor activity count", "setting": "[2]; 180 minutes after administration", "result": "47.6 ± 3.4"}, {"measurement": "Duration of clinging", "setting": "[3]; dose 9 mg/kg oral, about 60 minutes after administration, maximum 60 seconds, mean ± SE, n = 10", "result": "19.6 ± 4.9", "unit": "s"}, {"measurement": "durations of clinging time compared to control (in words)", "setting": "[3]; doses of Table 3", "result": "markedly reduced"}, {"measurement": "Maximum inclination", "setting": "[4]; dose 9 mg/kg oral, position held at least 5 seconds, mean ± SE, n = 10", "result": "51.5 ± 0.9", "unit": "degrees"}, {"measurement": "degrees of inclination compared to control (in words)", "setting": "[4]; doses of Table 4", "result": "markedly reduced"}]}]}
